Source: ChEMBL document CHEMBL1156329, “Bioisostere of valtrate, anti-HIV principle by inhibition for nuclear export of Rev” (Bioorg Med Chem Lett, 2010)
Activity calls are given as the source filed them. The calls are words filed in the database; no cut-off is given here.

How the values were obtained:
[1] = Inhibition of hemagglutininin-tagged HIV1 Rev protein nuclear export in human HeLa cells assessed as protein localization after 12 hrs by indirect fluorescent antibody technique; format: cell-based, Human immunodeficiency virus 1
[2] = tested on: HeLa; test: Inhibition of hemagglutininin-tagged HIV1 Rev protein nuclear export in human HeLa cells assessed as protein localization at 10 uM after 12 hrs by indirect fluorescent antibody technique; format: cell-based; conditions: Human immunodeficiency virus 1

CC(=O)OCC1=CO[C@@H](OC(=O)CC(C)C)[C@H]2[C@@H]1C[C@H](OC(=O)CC(C)C)[C@]21CO1
IC50 [1]: 4.4 µM | inhibition [2]: Active

CC(=O)OCC1=CO[C@@H](OC(=O)CC(C)C)[C@H]2C1=C[C@H](OC(=O)CC(C)C)[C@]21CO1 [VALTRATE]
IC50 [1]: 2.5 µM
